Source: patent US20220136033A1, “Kits and Assays for Determining Bacterial Cell Viability” (priority 2020, published 2022)
Values joined by “and” are separate entries in the source; they are usually repeats but may differ in a detail not shown here. Equal entries are not always repeated. Structures can show the parent of a compound that is named as a salt.

What was measured:
[1] = system: Gram-negative and Gram-positive bacteria; test: Bright-field microscopy viability staining with erythrosin B; format: cell-based
Method: Growth and treatments of bacteria. To prepare cells for viability studies, 3 mL overnight bacterial cultures were grown in Luria Broth. Fresh 5 mL cultures were inoculated from the overnight cultures and grown for 1 to 4 hours until reaching an OD600 of 0.4-1.1. Cells were harvested by centrifugation (15,000 g for 4 minutes) and then resuspended in phosphate buffered saline (PBS). A portion of these cells were kept at room temperature (untreated controls), while the remainder were transferred into separate microfuge tubes for different treatments. For heat shock treatment, microfuge tubes were placed at 70° C. for 30 minutes before returning to room temperature. For ethanol treatment, 100% ethanol (Decon Labs, Inc., PA, USA product number 2716) was added to cell suspensions to a final concentration of 30%. Cell mixtures were incubated at 37° C. for 30 minutes, centrifuged, and then the pellet was resuspended in PBS. For CaCl2 treatment, cells were centrifuged, and the pellet was resuspended in 1 mL of ice-cold 100 mM CaCl2 and left on ice for 45 minutes. After this initial incubation, the cells were centrifuged and resuspended in 1004 of 100 mM CaCl2.
Assaying bacterial viability. For bright-field microscopy assays, 104 of each cell suspension (untreated, heat-shocked, ethanol-treated and CaCl2-treated) was mixed with 104 of 0.08% erythrosin B and incubated for 5 minutes at room temperature. For CaCl2-treated cells, mixtures were placed at 42° C. for 60 seconds before returning to room temperature for the remainder of the incubation. 5 μl of the incubated dye:cell mixtures were taken to prepare wet mounts. Imaging was performed on a […] Olympus BX61 microscope using an UPlanSApo 100X/1.14 NA oil objective lens with an Olympus SC10 camera.

[2] = Excitation and emission spectra comparison; format: physicochemical; details: approx.
Description: FIG. 11. The excitation and emission spectra for erythrosin B and propidium iodide, another cell viability dye that works by membrane exclusion, were compared. Erythrosin B has a narrow range for both excitation (approx. 480-550 nm) and emission (approx. 540-610 nm) compared to propidium iodide (excitation of approx. 300-350 nm and 475-575 nnm; emission of approx. 570-750 nm).
Many experiments involving fluorescent molecules, including viability assays, try to multiplex (use more than one fluorescent molecule at a time (e.g., FIG. 12)). A key limitation to the number of different fluorescent molecules that can be simultaneously used is the width of the region(s) of wavelengths for excitation and for emission. By having narrow ranges for both excitation and emission this allows erythrosin B to be more flexible than propidium iodide and potentially be paired with a wider variety of other fluorescent probes.

[3] = Concentration of filtered EB stock solution by A530 reference; format: physicochemical; details: 0.1% (w/v) preparation in 10 mM Tris pH 7.5, undissolved dye removed by 0.22 μm filter
Method: Erythrosin B (EB, Sigma, Mo., USA 200964-5G) was prepared by dissolving powder in 10 mM Tris pH 7.5. Published values of the solubility of EB in aqueous solutions vary and may result from different preparations of the dye and from which supplier it is purchased. A small amount of undissolved dye was present when preparing a 0.1% (w/v) solution. This stock solution was filtered through a 0.22 μm filter to remove undissolved dye. To determine the concentration of this stock solution a fresh, dilute EB solution was prepared in which all dye fully dissolved after 10 minutes of stirring. This dilute solution was serially diluted and A530 readings (the wavelength of maximal absorbance for EB) were collected generating a reference relating EB dye concentration to A530. The filtered, stock solution of EB was then serially diluted, and absorbance values of the dilutions were compared to the reference absorbance values for the dilute solution. The stock EB concentration was determined to be 0.08% and is used throughout this work.

bacteria = test: Chemical treatments mildly affecting membrane permeability, EB staining; format: cell-based; details: 20 mM EDTA, 0.1-0.5% Triton X100, 0.12 M guanidine HCl or 0.1% SDS
Description: All cell viability assays have limitations. The CFU method can overestimate the proportion of dead cells because any viable cells that are unable to divide, or dividing more slowly than wild-type, fail to form visible colonies and will be scored as dead. Membrane exclusion dyes, such as EB and propidium iodine, can underestimate the proportion of dead cells as recently dead cells may not have sufficiently compromised membranes to allow the dye to enter the cell. […] How other viability methods score dying cells also varies and it is often difficult to accurately quantitate, or distinguish, a dying cell population (4). For membrane-exclusion dyes, the concern is whether the dye enters cells with mildly compromised membranes that may be dying, but not dead.

Streptococcus mutans = test: Flow cytometry viability comparison, propidium iodide vs EB-based kit; format: cell-based; details: >90% alive by CFU, 30,000 events
Method: (§1) Determining bacterial cell viability by a different membrane exclusion dye (propidium iodide, PI) is not reliable for certain bacteria species and under certain growth conditions (10,11). Using an EB dye and adsorbent resin binding step (hereafter referred to as EB-based Kit), it is possible to reliably determine cell viability in these bacteria species (FIG. 9A-L). In these experiments, overnight cultures of Streptococcus mutans (FIG. 9A-F) and Staphylococcus epidermidis (FIG. 9G-L) were grown in Luria Broth. A portion of each culture was killed by treating with ethanol (50% ethanol, for 30 minutes at 30° C.). Overnight cells and ethanol-treated cells were centrifuged (10,000 g for 6 minutes) and then resuspended in phosphate buffered saline. Both cell suspensions were then sonicated to break apart any clusters (10% for 10 seconds). An approximately equal amount of the untreated, living overnight cells and the ethanol-treated, killed cells were mixed to generate a mixed population sample. 100 microliters of each sample (overnight culture, live/dead mixture, and killed cells) were incubated with 100 microliters of an EB-dye solution for 5 minutes. After incubation, 100 microliters of the adsorbent solution was added and gently agitated for 5 minutes on a vortexer. Following agitation, the tubes were left for 5 minutes to allow the adsorbent to settle and 200 microliters of the liquid solution above the adsorbent was transferred to a new tube. These samples were brought up to 1 mL in phosphate buffered saline. For propidium iodide staining, 40 microliters of the sonicated samples (overnight culture, live/dead mixture, and killed cells) were transferred to a fresh tube and brought up to 1 mL in phosphate buffered saline. 1 microliter of propidium iodide was added to each tube and incubated for 15 minutes before analyzing all samples by flow cytometry (FIGS. 9A-F for Streptococcus mutans and FIGS. 9G-L for Staphylococcus epidermidis).

[4] = system: Staphylococcus epidermidis; test: as above; format: cell-based
Method: as §1

| Molecule | emission range [2] | excitation range [2] | increase in dye-positive live cells after chemical treatment (bacteria) | further results |
| --- | --- | --- | --- | --- |
| O.O=C([O-])c1ccccc1-c1c2cc(I)c(=O)c(I)c-2oc2c(I)c([O-])c(I)cc12.[Na+].[Na+] [EB, Erythrosin B] | 540-610 nm | 480-550 nm | – | dye-positive cells after CaCl2 treatment ([1]; CaCl2-treated cells): not all treated cells were dye positive; time until clear differences between dye-negative and dye-positive cells were visible ([1]; dye incubation, bright-field): ≤ 5 min; dye-positive cells after heat shock or ethanol treatment ([1]; heat shocked and ethanol-treated organisms): virtually all treated cells were dye-positive; healthy cells dye-positive by bright-field microscopy when incubated with EB ([1]; untreated cells, all species examined): < 3%; stock EB concentration [3]: 0.08% |
| O=C(O)CN(CCN(CC(=O)O)CC(=O)O)CC(=O)O [EDTA] | – | – | did not result in an observable increase in dye-positive live cells | – |
| CC[N+](C)(CC)CCC[n+]1c(-c2ccccc2)c2cc(N)ccc2c2ccc(N)cc21.[I-].[I-] [PI, propidium iodide] | 570-750 nm | 300-350 nm and 475-575 nm | – | cells dye-positive (dead), overnight culture (Streptococcus mutans): virtually all cells; cells dead, Live/Dead Mixture sample ([4]; near-equal mixture of live and ethanol-killed cells): 95%; cells dye-positive (dead), overnight culture ([4]; overnight culture, >90% alive by CFU, 30,000 events): ~61% |
| CCCCCCCCCCCCOS(=O)(=O)[O-].[Na+] [SDS] | – | – | did not result in an observable increase in dye-positive live cells | – |
| N=C(N)N [guanidine HCl] | – | – | did not result in an observable increase in dye-positive live cells | – |
| Triton X100 | – | – | did not result in an observable increase in dye-positive live cells | – |
